Assay results published in patent US20250145665A1, “MACROCYCLIC PEPTIDES USEFUL AS MODULATORS OF TNF ALPHA” (Bristol-Myers Squibb Company, priority 2023, published 2025).
Starred links: 1 amine or outer side, 2 acyl side, 3 side chain; linkers in the order of their positions; H or OH if unused. Positions of bridges follow the written chain, without caps; N, C: chain ends. Non-standard residues stand in square brackets, D forms with d. Residues, ends and D or L forms follow the SMILES beside them. ξ: configuration not given here. *: point of attachment. Bip(4'-NHCO-C6H4-3-CH2COOH) = N[C@@H](Cc1ccc(-c2ccc(NC(=O)c3cccc(CC(=O)O)c3)cc2)cc1)C(=O)O; X52 = Cc1c(C(=O)O)cccc1C(=O)Nc1ccc(-c2ccc(C[C@H](N[*:1])C(=O)[*:2])cc2)cc1; X47 = O=C(Nc1ccc(-c2ccc(C[C@H](N[*:1])C(=O)[*:2])cc2)cc1)c1coc2ccccc12; Bip(4'-NHBz) = N[C@@H](Cc1ccc(-c2ccc(NC(=O)c3ccccc3)cc2)cc1)C(=O)O; X64 = O=C(O)CCC(=O)Nc1ccc(-c2ccc(C[C@H](N[*:1])C(=O)[*:2])cc2)cc1; Bip(4'-NH) = O=C([C@H](Cc1ccc(-c2ccc(N[*:3])cc2)cc1)N[*:1])[*:2]; dArg(ω-(3-HO-benzyl)) = N=C(NCCC[C@@H](N)C(=O)O)NCc1cccc(O)c1; Indazole3carbonyl(1-CH2COOH) = O=C(O)Cn1nc(C(=O)*)c2ccccc21; Bip(4'-COOH) = N[C@@H](Cc1ccc(-c2ccc(C(=O)O)cc2)cc1)C(=O)O; Bip(4'-NHAc) = CC(=O)Nc1ccc(-c2ccc(C[C@H](N)C(=O)O)cc2)cc1; Phe(4-(4-pyridyl)) = N[C@@H](Cc1ccc(-c2ccncc2)cc1)C(=O)O; X58 = N=C(NCCC[C@@H](N[*:1])C(=O)[*:2])NCCc1cccc(N)c1; Phe(4-(3-Py)) = N[C@@H](Cc1ccc(-c2cccnc2)cc1)C(=O)O; Pro(trans-4-Ph) = O=C(O)[C@@H]1C[C@@H](c2ccccc2)CN1; Ala(morpholin-4-yl) = N[C@@H](CN1CCOCC1)C(=O)O; Benzoyl(3-OCH2COOH) = O=C(O)COc1cccc(C(=O)*)c1; Phe(3-CONH2) = NC(=O)c1cccc(C[C@H](N)C(=O)O)c1; Bip = N[C@@H](Cc1ccc(-c2ccccc2)cc1)C(=O)O; 2Pal = N[C@@H](Cc1ccccn1)C(=O)O; Cha = N[C@@H](CC1CCCCC1)C(=O)O; Chg = N[C@H](C(=O)O)C1CCCCC1; Tle = CC(C)(C)[C@H](N)C(=O)O; Abu = CC[C@H](N)C(=O)O; ξP = O=C(O)C1CCCN1; Sar = CNCC(=O)O

biological target: TNFα (Homo sapiens, UniProt P01375); assay: TNF-Induced HEK-Blue Assay; assay type: cell-based; conditions: not given
Sequence (P01375 77-233 limits assumed): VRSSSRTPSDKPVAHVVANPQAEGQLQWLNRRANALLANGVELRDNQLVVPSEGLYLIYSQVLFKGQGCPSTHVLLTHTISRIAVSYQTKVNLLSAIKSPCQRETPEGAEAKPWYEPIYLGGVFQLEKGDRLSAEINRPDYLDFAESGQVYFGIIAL

Row | Compound | IC50
1 | CC[C@H](C)[C@@H]1NC(=O)[C@@H](CCCNC(=N)N)NC(=O)[C@H](CC(=O)O)NC(=O)[C@H](Cc2cnc[nH]2)NC(=O)CN(C)C(=O)[C@H](Cc2ccc(-c3ccc(NC(=O)c4ccccc4)cc3)cc2)NC(=O)[C@H](Cc2ccc(-c3ccccc3)cc2)NC(=O)[C@H](CC2CCCCC2)NC(=O)CSC[C@@H](C(=O)NCC(N)=O)NC(=O)[C@H](CC(C)C)NC(=O)[C@H](Cc2cnc[nH]2)NC(=O)[C@H](C2CCCCC2)NC(=O)[C@@H]2CCCN2C1=O [Example 490] ({CH2CO}-[Cha][Bip][Bip(4'-NHBz)][Sar]HD[dR]IP[Chg]HLCG-NH2; thioether N-13) | 50 to 200 nM
2 | CC(C)C[C@@H]1NC(=O)[C@H](CCCNC(=N)N)NC(=O)[C@H](C(C)C)NC(=O)C2CCCN2C(=O)[C@H](C(C)C)NC(=O)[C@@H](CCCNC(=N)NCCc2cccc(N)c2)NC(=O)[C@H](CC(=O)O)NC(=O)[C@@H]2CCCN2C(=O)CN(C)C(=O)[C@H](Cc2ccc(-c3ccc(NC(=O)c4nn(CC(=O)O)c5ccccc45)cc3)cc2)NC(=O)[C@H](Cc2ccc(-c3ccccc3)cc2)NC(=O)[C@H](CN2CCOCC2)NC(=O)CSC[C@@H](C(=O)NCC(N)=O)NC1=O (stereo partly drawn) [Example 405] ({CH2CO}-[Ala(morpholin-4-yl)][Bip][Bip(4'-NH)](Indazole3carbonyl(1-CH2COOH))[Sar]PD[X58]V[ξP]VRLCG-NH2; thioether N-13) | 50 to 200 nM

same assay, conditions: HEK-Blue-CD40L cells, NF-kB-driven secreted alkaline phosphatase reporter; TNFα 0.5 ng/ml; 18 h; read-out: TNF induced HEK-Blue assay IC50 value

Row | Compound | IC50
3 | CC(=O)Nc1ccc(-c2ccc(C[C@@H]3NC(=O)[C@H](Cc4ccc(-c5ccccc5)cc4)NC(=O)[C@H](CN4CCOCC4)NC(=O)CSC[C@@H](C(=O)NCC(N)=O)NC(=O)[C@H](CC(C)C)NC(=O)[C@H](Cc4cccc(C(N)=O)c4)NC(=O)[C@H](C(C)C)NC(=O)[C@@H]4CCCN4C(=O)[C@H](C(C)C)NC(=O)[C@@H](CCCNC(=N)N)NC(=O)[C@H](CC(=O)O)NC(=O)[C@@H]4CCCN4C(=O)CN(C)C3=O)cc2)cc1 [Example 311] ({CH2CO}-[Ala(morpholin-4-yl)][Bip][Bip(4'-NHAc)][Sar]PD[dR]VPV[Phe(3-CONH2)]LCG-NH2; thioether N-13) | 50 to 200 nM
4 | CC[C@H](C)[C@@H]1NC(=O)[C@@H](CCCNC(=N)N)NC(=O)[C@H](CC(=O)O)NC(=O)[C@H](Cc2cnc[nH]2)NC(=O)CN(C)C(=O)[C@H](Cc2ccc(-c3ccc(NC(=O)CCC(=O)O)cc3)cc2)NC(=O)[C@H](Cc2ccc(-c3ccccc3)cc2)NC(=O)[C@H](CC2CCCCC2)NC(=O)CSC[C@@H](C(=O)NCC(N)=O)NC(=O)[C@H](CC(C)C)NC(=O)[C@H](Cc2cnc[nH]2)NC(=O)[C@H](C(C)C)NC(=O)[C@@H]2CCCN2C1=O [Example 323] ({CH2CO}-[Cha][Bip][X64][Sar]HD[dR]IPVHLCG-NH2; thioether N-13) | 50 to 200 nM
5 | CC(C)[C@@H]1NC(=O)[C@H](CCCNC(=N)N)NC(=O)[C@H](C(C)C)NC(=O)[C@@H]2CCCN2C(=O)[C@H](C(C)C)NC(=O)[C@H](CCCNC(=N)N)NC(=O)[C@H](CC(=O)O)NC(=O)[C@@H]2CCCN2C(=O)CN(C)C(=O)[C@H](Cc2ccc(-c3ccccc3)cc2)NC(=O)[C@H](Cc2ccc(-c3ccncc3)cc2)NC(=O)[C@H](CN2CCOCC2)NC(=O)CSC[C@@H](C(=O)NCC(N)=O)NC1=O [Example 87] ({CH2CO}-[Ala(morpholin-4-yl)][Phe(4-(4-pyridyl))][Bip][Sar]PDRVPVRVCG-NH2; thioether N-13) | 50 to 200 nM
6 | CC(C)C[C@@H]1NC(=O)[C@H](CCCNC(=N)N)NC(=O)[C@H](C(C)C)NC(=O)[C@@H]2CCCN2C(=O)[C@H](C(C)C)NC(=O)[C@H](CCCNC(=N)N)NC(=O)[C@H](CC(=O)O)NC(=O)[C@@H]2CCCN2C(=O)CN(C)C(=O)[C@H](Cc2ccc(-c3ccccc3)cc2)NC(=O)[C@H](Cc2ccc(-c3ccccc3)cc2)NC(=O)[C@H](CN2CCOCC2)NC(=O)CSC[C@@H](C(=O)NCC(N)=O)NC1=O [Example 32] ({CH2CO}-[Ala(morpholin-4-yl)][Bip][Bip][Sar]PDRVPVRLCG-NH2; thioether N-13) | 50 to 200 nM
7 | CC(=O)Nc1ccc(-c2ccc(C[C@@H]3NC(=O)[C@H](Cc4ccc(-c5ccccc5)cc4)NC(=O)[C@H](CC4CCCCC4)NC(=O)CSC[C@@H](C(=O)NCC(N)=O)NC(=O)[C@H](CC(C)C)NC(=O)[C@H](Cc4cccc(C(N)=O)c4)NC(=O)[C@H](C(C)C)NC(=O)[C@@H]4CCCN4C(=O)[C@H](C(C)C)NC(=O)[C@@H](CCCNC(=N)N)NC(=O)[C@H](CC(=O)O)NC(=O)[C@H](Cc4ccccn4)NC(=O)CN(C)C3=O)cc2)cc1 [Example 233] ({CH2CO}-[Cha][Bip][Bip(4'-NHAc)][Sar][2Pal]D[dR]VPV[Phe(3-CONH2)]LCG-NH2; thioether N-13) | < 50 nM
8 | CC(C)C[C@@H]1NC(=O)[C@H](CCCNC(=N)N)NC(=O)[C@H](C(C)C)NC(=O)[C@@H]2CCCN2C(=O)[C@H](C(C)C)NC(=O)[C@@H](CCCNC(=N)N)NC(=O)[C@H](CC(=O)O)NC(=O)[C@@H]2CCCN2C(=O)CN(C)C(=O)[C@H](Cc2ccc(-c3ccc(NC(=O)c4coc5ccccc45)cc3)cc2)NC(=O)[C@H](Cc2ccc(-c3ccccc3)cc2)NC(=O)[C@H](CN2CCOCC2)NC(=O)CSC[C@@H](C(=O)NCC(N)=O)NC1=O [Example 346] ({CH2CO}-[Ala(morpholin-4-yl)][Bip][X47][Sar]PD[dR]VPVRLCG-NH2; thioether N-13) | < 50 nM
9 | CC[C@@H]1NC(=O)[C@@H]2CCCN2C(=O)[C@H](C(C)C)NC(=O)[C@@H](CCCNC(=N)N)NC(=O)[C@H](CC(=O)O)NC(=O)[C@H](Cc2ccc(O)cc2)NC(=O)CN(C)C(=O)[C@H](Cc2ccc(-c3ccccc3)cc2)NC(=O)[C@H](Cc2ccc(-c3ccccc3)cc2)NC(=O)[C@H](CN2CCOCC2)NC(=O)CSC[C@@H](C(=O)NCC(N)=O)NC(=O)[C@H](CC(C)C)NC(=O)[C@H](Cc2ccc(O)cc2)NC1=O [Example 161] ({CH2CO}-[Ala(morpholin-4-yl)][Bip][Bip][Sar]YD[dR]VP[Abu]YLCG-NH2; thioether N-13) | 50 to 200 nM
10 | CC[C@H](C)[C@@H]1NC(=O)[C@@H](CCCNC(=N)N)NC(=O)[C@H](CC(=O)O)NC(=O)[C@H](Cc2cnc[nH]2)NC(=O)CN(C)C(=O)[C@H](Cc2ccc(-c3ccc(NC(=O)c4cccc(C(=O)O)c4C)cc3)cc2)NC(=O)[C@H](Cc2ccc(-c3ccccc3)cc2)NC(=O)[C@H](CC2CCCCC2)NC(=O)CSC[C@@H](C(=O)NCC(N)=O)NC(=O)[C@H](CC(C)C)NC(=O)[C@H](Cc2cnc[nH]2)NC(=O)[C@H](C(C)C)NC(=O)[C@@H]2CCCN2C1=O [Example 447] ({CH2CO}-[Cha][Bip][X52][Sar]HD[dR]IPVHLCG-NH2; thioether N-13) | 50 to 200 nM
11 | CC(C)[C@@H]1NC(=O)[C@H](CCCNC(=N)N)NC(=O)[C@H](C(C)C)NC(=O)[C@@H]2CCCN2C(=O)[C@H](C(C)C)NC(=O)[C@H](CCCNC(=N)N)NC(=O)[C@H](CC(=O)O)NC(=O)[C@@H]2CCCN2C(=O)CN(C)C(=O)[C@H](Cc2ccc(-c3ccccc3)cc2)NC(=O)[C@H](Cc2ccc(-c3cccnc3)cc2)NC(=O)[C@H](CN2CCOCC2)NC(=O)CSC[C@@H](C(=O)NCC(N)=O)NC1=O [Example 88] ({CH2CO}-[Ala(morpholin-4-yl)][Phe(4-(3-Py))][Bip][Sar]PDRVPVRVCG-NH2; thioether N-13) | 200 to 2000 nM
12 | CC(C)C[C@@H]1NC(=O)[C@H](Cc2ccc(O)cc2)NC(=O)[C@H](C(C)C)NC(=O)[C@@H]2CCCN2C(=O)[C@H](C(C)C)NC(=O)[C@@H](CCCNC(=N)N)NC(=O)[C@H](CC(=O)O)NC(=O)[C@@H]2C[C@@H](c3ccccc3)CN2C(=O)CN(C)C(=O)[C@H](Cc2ccc(-c3ccccc3)cc2)NC(=O)[C@H](Cc2ccc(-c3ccccc3)cc2)NC(=O)[C@H](CN2CCOCC2)NC(=O)CSC[C@@H](C(=O)NCC(N)=O)NC1=O [Example 99] ({CH2CO}-[Ala(morpholin-4-yl)][Bip][Bip][Sar][Pro(trans-4-Ph)]D[dR]VPVYLCG-NH2; thioether N-13) | 200 to 2000 nM
13 | CC[C@H](C)[C@@H]1NC(=O)[C@@H](CCCNC(=N)N)NC(=O)[C@H](CC(=O)O)NC(=O)[C@@H]2CCCN2C(=O)CN(C)C(=O)[C@H](Cc2ccc(-c3ccc(NC(=O)c4cccc(CC(=O)O)c4)cc3)cc2)NC(=O)[C@H](Cc2ccc(-c3ccc(C(=O)O)cc3)cc2)NC(=O)[C@H](C(C)(C)C)NC(=O)CSC[C@@H](C(=O)NCC(N)=O)NC(=O)[C@H](CC(C)C)NC(=O)[C@H](Cc2cnc[nH]2)NC(=O)[C@H](C(C)C)NC(=O)[C@@H]2CCCN2C1=O [Example 575] ({CH2CO}-[Tle][Bip(4'-COOH)][Bip(4'-NHCO-C6H4-3-CH2COOH)][Sar]PD[dR]IPVHLCG-NH2; thioether N-13) | 50 to 200 nM
14 | CC(C)C[C@@H]1NC(=O)[C@H](CCCNC(=N)N)NC(=O)[C@H](C(C)C)NC(=O)[C@@H]2CCCN2C(=O)[C@H](C(C)C)NC(=O)[C@@H](CCCNC(=N)NCc2cccc(O)c2)NC(=O)[C@H](CC(=O)O)NC(=O)[C@@H]2CCCN2C(=O)CN(C)C(=O)[C@H](Cc2ccc(-c3ccc(NC(=O)c4cccc(OCC(=O)O)c4)cc3)cc2)NC(=O)[C@H](Cc2ccc(-c3ccccc3)cc2)NC(=O)[C@H](CN2CCOCC2)NC(=O)CSC[C@@H](C(=O)NCC(N)=O)NC1=O [Example 568] ({CH2CO}-[Ala(morpholin-4-yl)][Bip][Bip(4'-NH)](Benzoyl(3-OCH2COOH))[Sar]PD[dArg(ω-(3-HO-benzyl))]VPVRLCG-NH2; thioether N-13) | < 50 nM
15 | CC(=O)Nc1ccc(-c2ccc(C[C@@H]3NC(=O)[C@H](Cc4ccc(-c5ccc(C(=O)O)cc5)cc4)NC(=O)[C@H](CN4CCOCC4)NC(=O)CSC[C@@H](C(=O)NCC(N)=O)NC(=O)[C@H](CC(C)C)NC(=O)[C@H](Cc4cccc(C(N)=O)c4)NC(=O)[C@H](C(C)C)NC(=O)[C@@H]4CCCN4C(=O)[C@H](C(C)C)NC(=O)[C@@H](CCCNC(=N)N)NC(=O)[C@H](CC(=O)O)NC(=O)[C@H](Cc4ccccn4)NC(=O)CN(C)C3=O)cc2)cc1 [Example 200] ({CH2CO}-[Ala(morpholin-4-yl)][Bip(4'-COOH)][Bip(4'-NHAc)][Sar][2Pal]D[dR]VPV[Phe(3-CONH2)]LCG-NH2; thioether N-13) | 50 to 200 nM
